Counter-ions that a name gives are not always drawn.
How the values were obtained:
rhVAP-1 = rhVAP-1 (Homo sapiens (Human), UniProt Q16853); experiment: Inhibition activity of the compounds on the rhVAP-1 enzyme (Amplex Red/HRP fluorescence, benzylamine substrate); format: biochemical; details: 30 minutes pre-incubation at 37° C.
Description: 1. Inhibition Activity of the Compounds on the rhVAP-1 Enzyme
Multifunctional microplate reader (MD, FlexStation 3), black bottom-impermeable 96-well plate (Corning), rhVAP-1 (PeproTech)
An appropriate amount of the test compound was dissolved in DMSO to 10 mM and stored. Before the experiment, an appropriate amount of 10 mM test compound mother liquor was diluted to 10 μM solution with DMSO. Then 3-fold gradient dilution with DMSO was performed, and 10 concentration gradients were formed.
An appropriate amount of protein diluent was added to the rhVAP-1 powder to obtain 1 mg/mL of the mother liquor for storage. Before the experiment, the dilution with PBS provided a 4×concentration of the enzyme solution.
An appropriate amount of benzylamine was added to PBS and dissolved to obtain 200 mM of the benzylamine solution. 2 mM Amplex Red mother liquor and 500 U/mL HRP mother liquor were added. The dilution with PBS provided 2×concentration substrate mixed solution.
First, 10 μL of compound solutions of different concentrations, 25 μL of 4×rhVAP-1 enzyme solution and 15 μL of PBS were added to a 96-well plate, evenly mixed by oscillation, and incubated at 37° C. for 30 minutes. Then 50 μL of 2×substrate mixed solution was added to each well, and immediately the detection was performed with the microplate reader in a condition of an exciting light at 565 nm, an emitting light at 590 nm, the fluorescence intensity for detecting each well of 5 minutes/run, and a total detection time of 25 minutes. The inhibition rate was calculated according to the following formula: V(RFU/min)=(Ft(RFU)−F0(RFU))/(Time(min)) Inhibition rate (%)=100%−Vcmpd(RFU/min)/V max(RFU/min)×100%
(§1) V: the fluorescence change rate; Ft: fluorescence reading at the time point t; F0: fluorescence reading at the time point 0; Time: time period t; Vcmpd: the fluorescence change rate of the test compound; Vmax: the Max well fluorescence change rate.
(§2) The log values of the concentrations were taken as the X-axis and the percent inhibition rates were taken as the Y-axis, and the dose-effect curve was fitted using the log(inhibitor) vs. response-Variable slope of the analytical software GraphPad Prism 5 to obtain the IC50 value of each compound for enzyme activity.

MAO-B = MAO-B (Homo sapiens (Human), UniProt P27338); experiment: Selectivity of the compounds for MAO-B enzyme (MAO-Glo); format: biochemical; details: 60 minutes pre-incubation at 37° C.
MAO-B, sequence (P27338 whole entry): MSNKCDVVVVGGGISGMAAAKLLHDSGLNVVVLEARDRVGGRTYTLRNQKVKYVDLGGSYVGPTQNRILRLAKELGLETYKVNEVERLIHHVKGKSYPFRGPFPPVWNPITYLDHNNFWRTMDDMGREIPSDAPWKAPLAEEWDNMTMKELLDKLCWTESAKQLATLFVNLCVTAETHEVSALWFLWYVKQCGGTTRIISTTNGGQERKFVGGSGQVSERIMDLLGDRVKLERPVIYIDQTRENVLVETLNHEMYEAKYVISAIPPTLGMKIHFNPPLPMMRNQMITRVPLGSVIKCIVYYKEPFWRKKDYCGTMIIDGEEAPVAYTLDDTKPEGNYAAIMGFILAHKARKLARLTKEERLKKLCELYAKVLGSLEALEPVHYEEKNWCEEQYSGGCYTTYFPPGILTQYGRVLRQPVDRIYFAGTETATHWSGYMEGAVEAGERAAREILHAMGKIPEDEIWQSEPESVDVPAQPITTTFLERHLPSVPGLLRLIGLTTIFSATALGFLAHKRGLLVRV
Description: (§3) 2. Selectivity of the Compounds for MAO-A/B Enzymes
(§4) Microplate reader (Perkin Elmer, Envision), 384 well plates (Perkin Elmer), centrifuge (Eppendorf), MAO-Glo™ (Promega), MAO-A (Active Motif) and MAO-B (Active Motif).
(§5) An appropriate amount of the test compound was dissolved in DMSO to 10 mM and stored. Before the experiment, an appropriate amount of 10 mM test compound mother liquor was diluted to 100 μM solution with DMSO. Then 4-fold gradient dilution with DMSO was performed, and 6 concentration gradients were formed.
(§6) The MAO-A/B mother liquor was diluted to 2×concentration enzyme solution with the assay buffer solution for the MAO-A/B.
(§7) The mother liquor of the MAO-A/B substrate mixed solution was diluted to 2×concentration substrate mixed solution with the assay buffer solution for the MAO-A/B.
(§8) 200 nL of compound solutions of different concentrations or solvent
(§9) and 10 μL of 2×MAO-A/B enzyme solution were added to a 384-well plate, evenly mixed by oscillation, and incubated at 37° C. for 60 minutes. Then 10 μL of 2×substrate mixed solution was added to each well, and immediately the detection was performed with the microplate reader in a condition of an exciting light at 535 nm, an emitting light at 587 nm, the fluorescence intensity for detecting each well of 5 minutes/run, and a total detection time of 25 minutes.
(§10) The inhibition rate was calculated according to the following formula: V(RFU/min)=(Ft(RFU)−F0(RFU))/(Time(min)) Inhibition rate (%)=100%−Vcmpd(RFU/min)/V max(RFU/min)×100%
as §1, §2

MAO-A = MAO-A (Homo sapiens (Human), UniProt P21397); experiment: Selectivity of the compounds for MAO-A enzyme (MAO-Glo); format: biochemical; details: 60 minutes pre-incubation at 37° C.
MAO-A, sequence (P21397 whole entry): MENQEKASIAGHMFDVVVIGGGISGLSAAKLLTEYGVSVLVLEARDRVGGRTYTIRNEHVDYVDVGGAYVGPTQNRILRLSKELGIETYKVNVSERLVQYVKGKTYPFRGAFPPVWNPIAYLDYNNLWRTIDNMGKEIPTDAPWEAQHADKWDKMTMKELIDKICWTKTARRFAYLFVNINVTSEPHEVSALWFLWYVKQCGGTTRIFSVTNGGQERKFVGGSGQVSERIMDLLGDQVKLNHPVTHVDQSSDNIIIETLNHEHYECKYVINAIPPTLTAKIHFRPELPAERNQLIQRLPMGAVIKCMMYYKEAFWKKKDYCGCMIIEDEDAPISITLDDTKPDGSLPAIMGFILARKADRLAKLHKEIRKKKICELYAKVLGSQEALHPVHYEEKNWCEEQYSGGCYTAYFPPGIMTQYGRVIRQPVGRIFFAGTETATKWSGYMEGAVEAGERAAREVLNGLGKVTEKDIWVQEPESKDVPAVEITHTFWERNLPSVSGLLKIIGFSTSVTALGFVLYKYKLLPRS
Description: as §3, §4, §5, §6, §7, §8, §9, §10, §1, §2

[1] = In vitro stability test in the dog plasma; format: in vitro ADME; details: Beagle dog plasma, 37° C., 2 hours, 0.2 μM
Description: Biological Example 2: In Vitro Stability Test of the Compound of the Present Invention in the Dog Plasma
Test compound: about 2 mg of test compound was prepared with DMSO into a 5 mM stock solution, then diluted with DMSO to 1 mM solution, and finally diluted with water to 50 μM test compound working solution for use.
Termination solution: about 2 mg of tolbutamide compound was firstly prepared with DMSO into a 1 mg/mL stock solution, finally diluted with acetonitrile to 100 ng/mL termination solution, and stored at 4° C. for later use.
(1) Frozen Beagle dog plasma was pre-incubated and thawed in a 37° C. water bath constant temperature oscillator for use.
(2) 10 μL of test compound (10 μM) was added to 490M (Beagle dog plasma, final concentration of the test substance was 0.2 μM, two duplicate samples.
(3) The sample was evenly mixed in vortex and incubated in a 37° C. water bath constant temperature oscillator.
(4) At the corresponding time points (T=0 h, 0.5 h, 1 h, 2 h; sample at 0 h was not incubated), 400 μL of the termination solution was added to 40 μL of the reaction solution obtained by reacting the test compound of step (2) and the components in the blood plasma, and the resulting mixture was evenly mixed and frozen at −80° C. for storage. […]

[2] = Stability test in human liver microsome; format: in vitro ADME; details: human liver microsome 0.5 mg protein/mL, compound 1 μM, β-NADPH
Description: Biological Example 3: Stability Test of the Compounds of the Present Invention in Human Liver Microsome
The composition of the incubation system:
(1) The liver microsome (20 mg protein/mL) was removed from the −80° C. refrigerator, pre-incubated in a 37° C. water bath constant temperature oscillator for 3 minutes, and thawed for use.
(2) A mixed solution of the incubation system (excluding compound and β-NADPH) according to the above “composition of the incubation system” for the test was prepared, and pre-incubated in a 37° C. water bath constant temperature oscillator for 2 minutes.
(3) Control group (excluding β-NADPH): 30 μL of water and 30 μL of compound working solution (concentration: 10 μM) were added to 240 μL of the mixed solution of the incubation system of step (2), and vortexed for 30 seconds to mix well. The total reaction volume was 300 μL. A duplicate sample was prepared. The sample was incubated in a 37° water bath constant temperature oscillator. The timing began and the sampling time points were set at 0 minute and 60 minutes.
(4) Sample group: 70 μL β-NADPH solution (10 mM) and 70 μL compound working solution (concentration: 10 μM) were added to 560 μL of the mixed solution in step (2). The total reaction volume was 700 μL. The resulting mixture was vortexed for 30 seconds to mix well. A duplicate sample was prepared. The sample was incubated in a 37° C. water bath constant temperature oscillator. The timing began and the sampling time points were set at 0 minute, 5 minutes, 10 minutes, 20 minutes, 30 minutes, and 60 minutes after timing.
(5) After vortexing for 3 minutes, the sample was centrifuged at 12000 rpm for 5 minutes.
(6) 150 μL of water was added to 50 μL of the supernatant. The resulting mixture was evenly mixed in vortex, and the sample LC/MS/MS analysis was performed.

rhVAP-1, sequence (Q16853 whole entry): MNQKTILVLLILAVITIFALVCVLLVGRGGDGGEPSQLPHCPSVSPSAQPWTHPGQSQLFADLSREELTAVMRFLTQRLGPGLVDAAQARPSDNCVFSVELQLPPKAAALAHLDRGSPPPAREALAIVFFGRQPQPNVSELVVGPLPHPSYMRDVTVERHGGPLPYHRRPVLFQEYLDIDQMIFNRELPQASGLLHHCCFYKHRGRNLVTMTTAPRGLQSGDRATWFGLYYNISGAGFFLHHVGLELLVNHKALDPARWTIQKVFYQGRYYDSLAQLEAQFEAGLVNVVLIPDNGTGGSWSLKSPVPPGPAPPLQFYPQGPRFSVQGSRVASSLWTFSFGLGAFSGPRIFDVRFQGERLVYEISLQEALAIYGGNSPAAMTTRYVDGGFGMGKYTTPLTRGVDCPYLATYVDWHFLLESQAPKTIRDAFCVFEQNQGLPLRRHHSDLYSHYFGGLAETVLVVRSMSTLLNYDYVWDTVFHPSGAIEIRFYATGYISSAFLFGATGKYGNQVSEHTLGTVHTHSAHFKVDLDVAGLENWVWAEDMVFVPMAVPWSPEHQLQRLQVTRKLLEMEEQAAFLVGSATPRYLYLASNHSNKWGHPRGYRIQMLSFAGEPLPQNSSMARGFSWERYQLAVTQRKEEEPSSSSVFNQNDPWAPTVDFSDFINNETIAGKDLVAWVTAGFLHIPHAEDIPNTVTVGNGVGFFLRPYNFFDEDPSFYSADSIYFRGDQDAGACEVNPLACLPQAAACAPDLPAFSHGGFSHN

IC50 (rhVAP-1): 18 nM
IC50 (MAO-B): 6300 nM
IC50 (MAO-A): 1300 nM
Retention Rate [1]: 98.6%
ClH [2]: 4.63 mL/min/kg
SMILES: NC/C(=C\F)COc1ccc2c(c1)CCN(C1CC1)C2=O [Hydrochloride of Compound 5, (E)-6-((2-(aminomethyl)-3-fluoroallyl)oxy)-2-cyclopropyl-3,4-dihydroisoquinolin-1(2H)-one]

Source: patent US11649233B2, “Halo-allylamine SSAO/VAP-1 inhibitor and use thereof” (Nanjing Transthera Biosciences Co., Ltd., priority 2017, dated 2023)
